This note sets out measurements from paper PMC5360100 (Biochemical pharmacology, 2011).

What is called EC50 is the concentration that produces a half-maximal response.

Common to all, as to assay: […]cAMP formation from [alpha-32P]ATP, Sf9 membranes
Holding throughout (type): biochemical
For orientation: Cyclic AMP is a second messenger, typically raised through Gs and lowered through Gi signalling.

Experiment [1] deals with T1, canine AC5 (Canis lupus, UniProt P30803). The settings on record: 300 µM; 7 mM Mg2+, 40 μM ATP, 10 μM GTPγS, pH 7.4, 30°C, 3% DMSO.
T1 sequence (P30803 whole entry): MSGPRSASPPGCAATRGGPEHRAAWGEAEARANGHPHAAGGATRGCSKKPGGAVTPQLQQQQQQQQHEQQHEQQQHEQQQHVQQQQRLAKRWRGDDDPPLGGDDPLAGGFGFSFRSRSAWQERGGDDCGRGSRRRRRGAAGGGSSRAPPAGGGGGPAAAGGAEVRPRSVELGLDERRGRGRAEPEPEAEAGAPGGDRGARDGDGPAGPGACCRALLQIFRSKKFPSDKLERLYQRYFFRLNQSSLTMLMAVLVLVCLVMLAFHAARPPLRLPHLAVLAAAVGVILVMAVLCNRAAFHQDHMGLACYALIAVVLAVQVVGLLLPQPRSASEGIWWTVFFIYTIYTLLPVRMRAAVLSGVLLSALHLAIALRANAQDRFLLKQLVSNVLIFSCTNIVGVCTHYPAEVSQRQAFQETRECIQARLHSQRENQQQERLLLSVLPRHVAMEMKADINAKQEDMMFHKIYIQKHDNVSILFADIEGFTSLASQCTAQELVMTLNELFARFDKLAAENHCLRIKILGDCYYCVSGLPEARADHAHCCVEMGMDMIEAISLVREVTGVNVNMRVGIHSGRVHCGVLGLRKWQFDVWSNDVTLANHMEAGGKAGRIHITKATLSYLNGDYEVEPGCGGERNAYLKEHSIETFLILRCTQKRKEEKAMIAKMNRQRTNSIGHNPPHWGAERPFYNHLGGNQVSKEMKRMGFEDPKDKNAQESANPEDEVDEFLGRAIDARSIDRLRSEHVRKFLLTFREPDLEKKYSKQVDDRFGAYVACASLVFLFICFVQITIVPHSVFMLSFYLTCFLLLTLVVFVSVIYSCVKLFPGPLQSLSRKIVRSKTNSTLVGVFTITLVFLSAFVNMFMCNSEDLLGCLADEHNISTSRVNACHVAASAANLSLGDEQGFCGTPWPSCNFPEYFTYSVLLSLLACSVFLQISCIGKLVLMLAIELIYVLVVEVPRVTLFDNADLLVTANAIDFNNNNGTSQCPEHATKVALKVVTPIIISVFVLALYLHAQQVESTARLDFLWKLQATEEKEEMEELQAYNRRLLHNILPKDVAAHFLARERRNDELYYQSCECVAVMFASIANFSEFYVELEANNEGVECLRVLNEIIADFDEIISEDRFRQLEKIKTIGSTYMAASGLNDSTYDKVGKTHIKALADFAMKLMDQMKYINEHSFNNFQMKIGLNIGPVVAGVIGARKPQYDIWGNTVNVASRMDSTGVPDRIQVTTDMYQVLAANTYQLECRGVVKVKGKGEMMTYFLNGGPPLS
For experiment [2], the target named is T2, bovine AC1 (Bos taurus, UniProt P19754). The following applies: 300 µM; 7 mM Mg2+, 40 μM ATP, 10 μM GTPγS, pH 7.4, 30°C, 3% DMSO.
T2 sequence (P19754 whole entry): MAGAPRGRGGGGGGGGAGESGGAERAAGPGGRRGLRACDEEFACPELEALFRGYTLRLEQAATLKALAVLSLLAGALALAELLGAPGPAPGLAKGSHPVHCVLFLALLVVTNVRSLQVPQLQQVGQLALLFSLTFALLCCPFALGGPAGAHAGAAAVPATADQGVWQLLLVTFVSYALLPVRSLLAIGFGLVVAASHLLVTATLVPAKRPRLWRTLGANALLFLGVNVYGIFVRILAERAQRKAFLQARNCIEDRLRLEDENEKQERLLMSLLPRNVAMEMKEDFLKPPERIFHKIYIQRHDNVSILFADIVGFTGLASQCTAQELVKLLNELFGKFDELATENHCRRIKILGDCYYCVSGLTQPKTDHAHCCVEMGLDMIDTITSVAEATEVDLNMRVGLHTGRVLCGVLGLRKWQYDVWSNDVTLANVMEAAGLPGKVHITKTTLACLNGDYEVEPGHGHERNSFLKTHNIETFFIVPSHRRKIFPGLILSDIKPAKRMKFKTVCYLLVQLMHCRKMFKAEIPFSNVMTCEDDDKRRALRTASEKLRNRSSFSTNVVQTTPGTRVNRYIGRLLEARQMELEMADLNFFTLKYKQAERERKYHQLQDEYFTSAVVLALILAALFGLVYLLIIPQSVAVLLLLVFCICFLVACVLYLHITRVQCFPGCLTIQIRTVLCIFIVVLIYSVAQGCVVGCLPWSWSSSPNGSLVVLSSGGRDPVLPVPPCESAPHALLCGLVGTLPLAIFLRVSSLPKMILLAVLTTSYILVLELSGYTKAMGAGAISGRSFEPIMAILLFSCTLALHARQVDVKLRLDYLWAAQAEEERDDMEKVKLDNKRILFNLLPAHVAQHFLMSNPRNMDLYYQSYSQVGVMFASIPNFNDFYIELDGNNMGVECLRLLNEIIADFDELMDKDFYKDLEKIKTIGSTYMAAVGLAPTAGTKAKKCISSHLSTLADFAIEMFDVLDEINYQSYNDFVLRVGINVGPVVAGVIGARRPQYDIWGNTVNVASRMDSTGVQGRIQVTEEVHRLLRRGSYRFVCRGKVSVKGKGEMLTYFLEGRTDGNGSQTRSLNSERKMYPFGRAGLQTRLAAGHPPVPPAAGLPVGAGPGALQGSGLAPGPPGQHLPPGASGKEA
Experiment [3] has as its target T3, rat AC2 (Rattus norvegicus, UniProt P26769). The settings on record: 300 µM; 7 mM Mg2+, 40 μM ATP, 10 μM GTPγS, pH 7.4, 30°C, 3% DMSO.
Experiment [4] concerns the target T3, rat AC2.
The target in experiment [5] is T2, bovine AC1.
For experiment [6], the target named is T1, canine AC5.

T3 sequence (P26769 whole entry): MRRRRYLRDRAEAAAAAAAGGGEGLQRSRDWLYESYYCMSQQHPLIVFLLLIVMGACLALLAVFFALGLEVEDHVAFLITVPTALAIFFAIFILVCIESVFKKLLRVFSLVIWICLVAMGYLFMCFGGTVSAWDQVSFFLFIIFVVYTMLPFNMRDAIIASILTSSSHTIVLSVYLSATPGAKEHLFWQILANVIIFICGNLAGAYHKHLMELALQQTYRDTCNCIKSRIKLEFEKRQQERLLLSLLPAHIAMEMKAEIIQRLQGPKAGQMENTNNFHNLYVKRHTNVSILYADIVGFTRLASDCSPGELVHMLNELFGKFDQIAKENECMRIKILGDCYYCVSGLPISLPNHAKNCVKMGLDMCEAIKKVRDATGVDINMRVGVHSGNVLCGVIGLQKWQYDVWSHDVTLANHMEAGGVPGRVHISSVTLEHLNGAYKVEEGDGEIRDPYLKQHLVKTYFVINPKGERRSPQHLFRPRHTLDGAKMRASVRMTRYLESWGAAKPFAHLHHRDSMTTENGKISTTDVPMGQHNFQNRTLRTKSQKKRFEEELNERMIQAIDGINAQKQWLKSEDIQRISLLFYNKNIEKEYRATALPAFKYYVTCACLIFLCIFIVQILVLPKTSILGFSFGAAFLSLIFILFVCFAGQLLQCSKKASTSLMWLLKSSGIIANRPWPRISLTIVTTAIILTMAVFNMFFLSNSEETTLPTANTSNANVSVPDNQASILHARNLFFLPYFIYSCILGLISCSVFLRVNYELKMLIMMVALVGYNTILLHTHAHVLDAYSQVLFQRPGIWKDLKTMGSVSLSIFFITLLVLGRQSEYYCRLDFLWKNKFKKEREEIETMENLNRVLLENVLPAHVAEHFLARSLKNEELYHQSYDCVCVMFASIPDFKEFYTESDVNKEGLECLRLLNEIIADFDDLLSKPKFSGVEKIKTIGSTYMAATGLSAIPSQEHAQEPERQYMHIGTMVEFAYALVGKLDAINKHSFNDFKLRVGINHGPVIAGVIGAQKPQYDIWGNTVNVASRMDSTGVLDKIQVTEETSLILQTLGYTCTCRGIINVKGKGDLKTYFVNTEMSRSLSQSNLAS

Turning to `C=C[C@@]1(C)CC(=O)[C@]2(O)[C@@]3(C)CCCC(C)(C)[C@@H]3[C@H](O)[C@H](OC(C)=O)[C@@]2(C)O1` [1d-FS], the “AC5 / Efficacy [%]” value on canine AC5 [1] came to 14.7 ± 4.4%. The “AC1 / Efficacy [%]” value on bovine AC1 [2] is listed as 11.1 ± 4.7%. In addition, the “AC2 / Efficacy [%]” value at rat AC2 [3] is given as 1.7 ± 3.4%.

For the molecule `C=C[C@@]1(C)CC(=O)[C@]2(O)[C@@]3(C)[C@@H](O)CCC(C)(C)[C@@H]3[C@H](OC(C)=O)[C@H](O)[C@@]2(C)O1` [6A7DA-FS], the half-maximal effective concentration (EC50) on rat AC2 [4] was 1.8 µM; at bovine AC1 [5], 6.5 ± 2.1 µM; on canine AC5 [6], 52.1 ± 16.7 µM.

Take `C=C[C@@]1(C)CC(=O)[C@H]2[C@](C)(O1)[C@@H](OC(C)=O)[C@@H](O)[C@H]1C(C)(C)CC[C@H](O)[C@@]12C` [9d-FS]: the EC50 came out at 242 ± 113 µM on rat AC2 [4], 16.8 ± 3 µM on bovine AC1 [5] and 77.8 ± 46.1 µM on canine AC5 [6].

Turning to `C=C[C@@]1(C)CC(=O)[C@]2(O)[C@@]3(C)[C@@H](O)CCC(C)(C)[C@@H]3[C@H](O)[C@H](OC(C)=O)[C@@]2(C)O1` [FS], the results for the EC50 at rat AC2 [4], at bovine AC1 [5] and at canine AC5 [6] were 47.3 ± 8.1 µM, 5.5 ± 0.8 µM and 4.6 ± 1.5 µM, respectively.
